Test [1] relates to SDMA in MTAP WT cells. On the set-up: method as in ref 9 (a number printed in a supplementary file, which may have a reference list of its own: not looked up in the article's list). To be noted: read-out: In-Cell Western (nM), SDMA EC50; cited from earlier work.
Test [2] has as its system PRMT5. To be noted: 3H-SAM to peptide substrate; read-out: Biochemical (nM), IC50; cited from earlier work.
Test [3] relates to SmBB' dimethylation in MCF7 cells. On the set-up: method as in ref 4 (a number printed in a supplementary file, which may have a reference list of its own: not looked up in the article's list). To be noted: read-out: In-Cell Western (nM), EC50; cited from earlier work.
The target in test [4] is NanoLuc-PRMT5 co-expressed with WDR77 (Homo sapiens, UniProt O14744). The test can be described thus: Live-cell NanoBRET target engagement with BRET probe CBH-002 in HEK293 cells expressing NanoLuc-PRMT5 and unlabeled WDR77. The format is cell-based. To be noted: for EC50: HEK293, competitive displacement of CBH-002, 2 h, n=3. On the set-up: host or cells: HEK293. On the procedure:
HEK293 cells (ATCC) were cultured in DMEM (Thermo Fisher) + 10% (v/v) FBS (Seredigm), and HCT116 cells (Horizon Discovery, #PAR-034 and #R02-033) were cultured in McCoy’s 5A (Thermo Fisher) + 10% FBS, with incubation in a humidified, 37 °C/5% CO2 incubator. Cells were split 1–3 days prior to performing experiments and used at roughly 80% confluency. […] Cells were transfected according to the manufacturer’s protocol using FuGENE HD (Promega). NanoLuc fusion DNA was diluted into Transfection Carrier DNA (Promega) in Opti-MEM at a ratio of 1:9 (mass/mass), and FuGENE HD was added at a ratio of 1:3 (μg DNA:μL lipid). […] Formed complexes were combined with cells resuspended to a density of 2 × 10^5 cells/mL in Opti-MEM + 1% FBS at a ratio of 1:20 (vol:vol). […] Cells were seeded at a density of 2 × 10^5 cells/mL in Opti-MEM + 1% FBS in 100 μL (96-well). The BRET probe CBH-002 was prepared first as a 100× stock in 100% DMSO (Sigma) and then diluted to a 20× stock in NanoBRET Tracer Dilution buffer (Promega). Test compounds were prepared as 1000× stocks in 100% DMSO and diluted to 10× stocks in Opti-MEM to prepare working stocks. […] NanoBRET Complete 3x Substrate was prepared by combining Nano-Glo Substrate and Extracellular NanoLuc Inhibitor in Opti-MEM, according to the manufacturer’s protocol (Promega).
BRET ratio values were calculated by dividing the acceptor by the donor signal, and raw BRET was converted to milli-BRET (mBRET) units (mBu) by multiplying by 1000.
EC50 values were obtained by fitting the BRET probe and compound affinity curves to a sigmoidal four-parameter fit model in Graphpad Prism:1 Y=Ymin+Ymax−Ymin/1+10^LogEC50−Xh where h is the Hill Slope.
When normalized BRET was used, mBRET values were normalized using2 NormalizedBRET%=(Y−BRETmin)/BRETmax−BRETmin where y = mBRET in the presence of test compound and BRET probe, BRETmin = mBRET at the highest concentration (saturating) of test compound and BRET probe, and BRETmax = mBRET in the presence of vehicle (DMSO) and BRET probe.
Normalized concentration-response curves showing full competition were fit using a 2-parameter model:3 Y=100/1+10^LogEC50−Xh
In situations where only partial competition was observed, the normalized concentration-response curves were fit using Eq. 1 and where Ymin was constrained to >0.
On the technique in general: BRET reads energy transfer from a luciferase to a nearby fluorophore.

Test [5] has as its target NLuc-PRMT5 co-expressed with WDR77 (Homo sapiens, UniProt O14744). As to the kind of experiment: Compound EC50 titrations against MTA, NanoBRET in HEK293 (NLuc-PRMT5 + WDR77), with global Gaddum/Schild or Morrison fits. Conditions: for Schild slope: Global Gaddum/Schild EC50 shift fit, MTA titration; for Right-shift in binding/potency on addition of MTA: HEK293, 300 µM exogenous MTA; for EC50 fold change (EC50 at 300 μM MTA versus vehicle): negative = enhanced potency under high MTA; for Hill slope (Global/Schild fit): constant across [MTA], constrained to 1 for PF06939999 and GSK3326595.
Experimental: MTA (Sigma) was prepared at 100× in 100% DMSO and diluted to 10× in Opti-MEM. Inhibitors were run as 11 pt, 3-fold dilution curves and MTA as a seven point, 3-fold dilution curve starting at 100 μM. Cells were incubated for 2 h at 37 °C and 5% CO2 prior to BRET measurements. Data was normalized using Eq. (2) where BRETMIN = saturating compound + maximum [MTA], and BRETMAX = BRET signal under vehicle conditions. Curves were fit using Eq. (3), and EC50 values were plotted against MTA concentration to determine the linear range of MTA detection.

Another test concerns the target PRMT5:MEP50 complex. On the set-up: method as in ref 4 (a number printed in a supplementary file, which may have a reference list of its own: not looked up in the article's list). To be noted: read-out: SPR (pM), Kd; cited from earlier work.
A further test deals with SDMA levels in A427. On the set-up: method as in ref 5,6 (a number printed in a supplementary file, which may have a reference list of its own: not looked up in the article's list). Conditions: read-out: In-Cell Western (nM), IC50; cited from earlier work.
The target of test [6] is PRMT5. On the set-up: method as in ref 5,6 (a number printed in a supplementary file, which may have a reference list of its own: not looked up in the article's list). Conditions: single-cycle kinetic analysis; read-out: SPR (pM), Kd; cited from earlier work.
In the next test the test system is PRMT5–MEP50. To be noted: cited from earlier work; for IC50: read-out: Biochemical (nM), IC50.
The next test addresses PRMT5/MEP50. On the set-up: method as in ref 7,8 (a number printed in a supplementary file, which may have a reference list of its own: not looked up in the article's list). To be noted: 20 μM SAM preincubation; read-out: SPR; cited from earlier work.
Another test has as its system SDMA in MTAP del cells. On the set-up: method as in ref 7,8 (a number printed in a supplementary file, which may have a reference list of its own: not looked up in the article's list). Conditions: read-out: In-Cell Western (nM), SDMA IC50; cited from earlier work.
In test [7] the test system is SDMA in MTAP WT cells. On the set-up: method as in ref 7,8 (a number printed in a supplementary file, which may have a reference list of its own: not looked up in the article's list). Conditions: read-out: In-Cell Western (nM), SDMA IC50; cited from earlier work.
The subject of a further test is MTAP WT cell lines. On the set-up: method as in ref 7,8 (a number printed in a supplementary file, which may have a reference list of its own: not looked up in the article's list). To be noted: 10 day viability, read-out: Proliferation (nM), IC50; cited from earlier work.
The next test has as its system MTAP del cell lines. On the set-up: method as in ref 7,8 (a number printed in a supplementary file, which may have a reference list of its own: not looked up in the article's list). Conditions: 10 day viability, read-out: Proliferation (nM), IC50; cited from earlier work.

Values joined by “and” are separate entries in the source; they are usually repeats but may differ in a detail not shown here. Equal values may be shown once. Read-outs that look alike come from different tables or passages of the source.

Sequence of NLuc-PRMT5 co-expressed with WDR77 (O14744 whole entry): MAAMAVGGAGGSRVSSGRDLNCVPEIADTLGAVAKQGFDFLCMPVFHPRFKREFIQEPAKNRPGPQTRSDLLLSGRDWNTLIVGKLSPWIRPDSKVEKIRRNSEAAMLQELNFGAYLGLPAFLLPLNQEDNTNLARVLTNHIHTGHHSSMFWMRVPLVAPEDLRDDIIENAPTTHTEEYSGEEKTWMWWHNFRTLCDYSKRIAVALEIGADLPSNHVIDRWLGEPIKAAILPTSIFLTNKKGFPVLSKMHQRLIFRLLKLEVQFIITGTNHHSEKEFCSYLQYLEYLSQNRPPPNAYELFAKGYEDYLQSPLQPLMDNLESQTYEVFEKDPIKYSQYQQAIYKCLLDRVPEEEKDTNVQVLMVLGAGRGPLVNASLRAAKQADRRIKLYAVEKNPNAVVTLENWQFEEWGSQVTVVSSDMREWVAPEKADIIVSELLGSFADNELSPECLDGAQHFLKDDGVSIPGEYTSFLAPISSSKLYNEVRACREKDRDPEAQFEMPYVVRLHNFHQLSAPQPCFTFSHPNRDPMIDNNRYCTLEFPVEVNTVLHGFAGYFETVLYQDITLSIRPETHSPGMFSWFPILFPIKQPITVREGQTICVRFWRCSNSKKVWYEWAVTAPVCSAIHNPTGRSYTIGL
Sequence of NLuc-PRMT5 co-expressed with WDR77 (Q9BQA1 whole entry partner): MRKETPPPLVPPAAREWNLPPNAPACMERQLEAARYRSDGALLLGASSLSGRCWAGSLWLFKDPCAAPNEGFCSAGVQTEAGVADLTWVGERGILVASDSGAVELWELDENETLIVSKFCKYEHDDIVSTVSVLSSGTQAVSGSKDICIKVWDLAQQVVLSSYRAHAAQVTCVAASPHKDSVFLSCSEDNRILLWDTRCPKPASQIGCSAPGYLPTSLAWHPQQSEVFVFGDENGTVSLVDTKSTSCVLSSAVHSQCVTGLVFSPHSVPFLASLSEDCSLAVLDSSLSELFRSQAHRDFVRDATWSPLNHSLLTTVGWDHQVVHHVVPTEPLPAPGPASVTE
Sequence of NanoLuc-PRMT5 co-expressed with WDR77 (O14744 whole entry, the tested form may be a part): as the sequence (O14744 whole entry) above
Sequence of NanoLuc-PRMT5 co-expressed with WDR77 (Q9BQA1 whole entry partner, the tested form may be a part): as the sequence (Q9BQA1 whole entry partner) above

As usually defined, the EC50 is the concentration needed to bring the measured effect to its halfway point. On to `Cc1cc(NC(=O)C(=O)N2CC(C)CCC2c2ccc3scnc3c2)cnc1N` (centres unmarked) [TNG908], for which, in the test with SDMA in MTAP WT cells [1], the EC50 is 135 nM.

As a reminder, the Hill slope is the slope factor of the fitted curve. `Nc1ncnc2c1ccn2[C@@H]1O[C@H]([C@H](O)c2ccccc2)[C@@H](O)[C@H]1O` [LLY-283]: the IC50 with PRMT5 [2] is 22 nM. The EC50 is 25 nM in test [3]; 467 nM in test [4] (NanoBRET EC50 (95% CI, nM)); 348 nM in test [5] (EC50, [MTA] 0 μM, HEK293, 30 nM CBH-002); 365 nM in [5] (EC50, nM (MTA = 0), Global/Schild fit, HEK293). Also, the remaining activity at […] in test [4] (HEK293, log([compound]), uM 0.0458, vehicle = 100, read-out: Normalized BRET, Bio rep 1-3) is 34%; in test [4] (HEK293, log([compound]), uM 0.52, vehicle = 100, read-out: Normalized BRET, Bio rep 1-3) it was 24.1%; in [4] (HEK293, log([compound]), uM -0.91, vehicle = 100, read-out: Normalized BRET, Bio rep 1-3) it was 66.1%. Further, the remaining activity at 0.3715 µM in test [4] (HEK293, log([compound]), uM -0.43, vehicle = 100, read-out: Normalized BRET, Bio rep 1-3) turned out to be 53.7%. For the same molecule, the remaining activity at 0.04074 µM in test [4] (HEK293, log([compound]), uM -1.39, vehicle = 100, read-out: Normalized BRET, Bio rep 1-3) came out at 81.4%. The remaining activity at 0.0138 µM in test [4] (HEK293, log([compound]), uM -1.86, vehicle = 100, read-out: Normalized BRET, Bio rep 1-3) turned out to be 91.4%. The remaining activity at 0.004571 µM in test [4] (HEK293, log([compound]), uM -2.34, vehicle = 100, read-out: Normalized BRET, Bio rep 1-3) came to 97.7%. Besides, in [4] (HEK293, log([compound]), uM -2.82, vehicle = 100, read-out: Normalized BRET, Bio rep 1-3), the remaining activity at 0.001514 µM amounted to 102%. The remaining activity at 0.0005129 µM in test [4] (HEK293, log([compound]), uM -3.29, vehicle = 100, read-out: Normalized BRET, Bio rep 1-3) stood at 107%. Also, the remaining activity at 0.0001698 µM in test [4] (HEK293, log([compound]), uM -3.77, vehicle = 100, read-out: Normalized BRET, Bio rep 1-3) came to 102%. Moreover, in test [5] (HEK293), the Schild slope was 1.1 (0.93 - 1.31). In test [5] (Global/Schild fit, HEK293), the “A2 (concentration of MTA needed to shift the dose response curve by a factor of 2)” value is reported as 61 (46-79) M. In [5], the “Right-shift in binding/potency on addition of MTA” value was found to be 6 fold. Also, in test [5] (HEK293), the “EC50 fold change (EC50 at 300 μM MTA versus vehicle)” value is 6 and 6.1. Also, the Hill slope is reported as 0.62 in test [5] ([MTA] 0 μM, HEK293); 0.55 in test [5] ([MTA] 11.11 μM, HEK293); 0.62 in [5] ([MTA] 100 μM, HEK293); 0.64 in test [5] ([MTA] 300 μM, HEK293). For the same molecule, in [5], the “Hill slope (Global/Schild fit)” value is on record as 0.55 (0.51 - 0.59). On PRMT5:MEP50 complex, the Kd was 6000 pM.

`Nc1ncnc2c1ccn2C1OC(C(O)c2ccccc2)C(O)C1O` (centres unmarked) [PF-06939999]: the IC50 in the test with SDMA levels in A427 is 1.1 nM. Also, the Kd at PRMT5 [6] is 5.8 pM. The remaining activity at […] was found to be 0.95% in test [4] (HEK293, log([compound]), uM -0.48, vehicle = 100, read-out: Normalized BRET, Bio rep 1-3) and 11.6% in test [4] (HEK293, log([compound]), uM -1.91, vehicle = 100, read-out: Normalized BRET, Bio rep 1-3). Moreover, the remaining activity at 0.1122 µM in test [4] (HEK293, log([compound]), uM -0.95, vehicle = 100, read-out: Normalized BRET, Bio rep 1-3) is 2.4%. In addition, in test [4] (HEK293, log([compound]), uM -1.43, vehicle = 100, read-out: Normalized BRET, Bio rep 1-3), the remaining activity at 0.03715 µM stood at 5.9%. Also, in test [4] (HEK293, log([compound]), uM -2.39, vehicle = 100, read-out: Normalized BRET, Bio rep 1-3), the remaining activity at 0.004074 µM is 22.9%. Besides, in [4] (HEK293, log([compound]), uM -2.86, vehicle = 100, read-out: Normalized BRET, Bio rep 1-3), the remaining activity at 0.00138 µM was 51.1%. Moreover, in [4] (HEK293, log([compound]), uM -3.34, vehicle = 100, read-out: Normalized BRET, Bio rep 1-3), the remaining activity at 0.0004571 µM was determined as 72.7%. Besides, the remaining activity at 0.0001514 µM in test [4] (HEK293, log([compound]), uM -3.82, vehicle = 100, read-out: Normalized BRET, Bio rep 1-3) stood at 89%. Further, in test [4] (HEK293, log([compound]), uM -4.29, vehicle = 100, read-out: Normalized BRET, Bio rep 1-3), the remaining activity at 51.29 pM turned out to be 98.4%. For the same molecule, the remaining activity at 16.98 pM in test [4] (HEK293, log([compound]), uM -4.77, vehicle = 100, read-out: Normalized BRET, Bio rep 1-3) was determined as 102%. Also, the EC50 in [4] (read-out: NanoBRET EC50 (95% CI)) was 1.7 nM. Moreover, in test [5] (HEK293), the Schild slope is 1.15 (0.88 - 1.51). For the same molecule, the “A2 (concentration of MTA needed to shift the dose response curve by a factor of 2)” value in [5] (Global/Schild fit, HEK293) is on record as 172 (137 – 211) M. In addition, the “Right-shift in binding/potency on addition of MTA” value in [5] is 3 fold. Moreover, the “EC50 fold change (EC50 at 300 μM MTA versus vehicle)” value in test [5] (HEK293) was 3 and 2.8. Further, the Hill slope in [5] ([MTA] 0 μM, HEK293) was determined as 0.97; in test [5] ([MTA] 11.11 μM, HEK293), 0.99; in test [5] ([MTA] 100 μM, HEK293) it was 0.79; in [5] ([MTA] 300 μM, HEK293), 0.76. Further, the “Hill slope (Global/Schild fit)” value in test [5] amounted to 1.

For `Cn1ncc(-c2ccc3c(=O)[nH]nc(CN)c3c2)c1-c1c(F)c(Cl)cc(OC2CC2)c1C#N` [MRTX1719], the IC50 is 3.6 nM with PRMT5–MEP50 (MTA); 20.4 nM in the test on PRMT5–MEP50 (SAM); 8 nM with SDMA in MTAP del cells; 653 nM with SDMA in MTAP WT cells [7]; 890 nM in the test on MTAP WT cell lines; 12 nM in the test with MTAP del cell lines. Further, the “Enhancement of biochemical IC50 in the presence of MTA” value in the test with PRMT5–MEP50 is reported as 5 fold. The Kd on PRMT5/MEP50 is 0.0094 nM.

These data come from article PMC12675575, “A BRET biosensor for measuring uncompetitive engagement of PRMT5 complexes in cells” (Nature Communications, 2025).
